# The COVID Moonshot data (paper PMC11187573), “Identification of SARS-CoV-2 Mpro inhibitors through deep reinforcement learning for de novo drug design and computational chemistry approaches” (RSC Medicinal Chemistry, 2024)
# pIC50: −log10 of the molar value.
# Molecular target: SARS-CoV-2 Main Protease (SARS-CoV-2) (UniProt P0DTD1)
Structure (SMILES),inhibition (20.0 µM) [%],inhibition (50.0 µM) [%],pIC50
CC(C)Cn1cc(NC(=O)NCc2ccco2)c2ccccc2c1=O,50.5,90.3,
Cc1[nH]c2ncnc(NC(=O)c3cc4ccccc4c(=O)o3)c2c1C,-7.32,-4.98,
CC(C)Cn1cc(NC(=O)N2CCC(c3ccccc3)C2)c2ccccc2c1=O (configuration not stated),-2.21,0.973,
Cn1cc(NC(=O)NCCc2ccc(Cl)cc2)c2ccccc2c1=O,-6.47,-3.22,
CCOC(=O)c1ccc(NC(=O)Nc2cn(C)c(=O)c3ccccc23)cc1,17.1,4.9,
CCOC(=O)N1CCC(NC(=O)Nc2cn(C)c(=O)c3ccccc23)CC1,-1.08,1.92,
CCN(Cc1ccc(F)cc1)c1cc(Cl)cc(CC(=O)Nc2cncc3ccccc23)c1,,,5.85
Cc1cccnc1NC(=O)Nc1cn(CC(C)C)c(=O)c2ccccc12,-0.204,-1.16,
CC(C)Cn1cc(NC(=O)NC2CCCc3ccccc32)c2ccccc2c1=O (configuration not stated),26.4,12.2,
CC(C)Cn1cc(NC(=O)NCCN2CCOCC2)c2ccccc2c1=O,-1.08,-1.81,
Cn1c(-c2ccc(NC(=O)C3CCCCC(=O)N3)cc2)nc2ccccc21 (configuration not stated),-3.33,-2.97,
C[C@@H]1COCCN1c1cc(C2([S@](C)(=N)=O)CC2)nc(-c2cncc3[nH]ccc23)n1 (stereo in doubt),-0.821,3.82,
CC(C)Cn1cc(NC(=O)N2CCC(Cc3ccccc3)CC2)c2ccccc2c1=O,-4.27,3.43,
CC(NC(=O)Cc1ccc(-n2cnnn2)cc1)(C(=O)Nc1cncc2ccccc12)c1ccc(Cl)c(Cl)c1 (configuration not stated),,,5.33
COc1cc2c(cc1OC)C(C)N(C(=O)Nc1cn(C)c(=O)c3ccccc13)CC2 (configuration not stated),51.2,5.23,
C[C@@H](Cn1ccc(-c2ccc(C#N)c(Cl)c2)n1)NC(=O)c1cc([C@@H](C)O)[nH]n1 (stereo in doubt),3.16,-11.9,
Cc1ccc(NC(=O)Nc2cn(CC(C)C)c(=O)c3ccccc23)c(Br)c1,8.16,9.66,
O=C(NCC1(C(=O)Nc2cncc3ccccc23)CCOc2ccc(Cl)cc21)C1COCCN1CC(F)(F)F (configuration not stated),,,4.67
COc1cc(Cl)nc(Nc2cc(Cl)cc(CC(=O)Nc3cncc4ccccc34)c2)n1,,,6.30
CC1CN(C)CCN1C(=O)CC1(C(=O)Nc2cncc3ccccc23)CCOc2ccc(Cl)cc21 (configuration not stated),,,5.21
O=C(Nc1cncc2ccccc12)[C@@H]1COc2ccc(Cl)cc21 (stereo in doubt),,,6.26

Structure (SMILES),inhibition (20.0 µM) [%],inhibition (50.0 µM) [%],pIC50
COc1cc(OC)nc(O[C@H](C(=O)O)C(OC)(c2ccccc2)c2ccccc2)n1 (stereo in doubt),-28.4,2.42,
COc1cc(Cl)c(C)cc1NC(=O)Nc1cn(CC(C)C)c(=O)c2ccccc12,5.7,9.03,
Nc1n[nH]c2cc(O)nc(O)c12,6.14,30.9,
COc1ccc(OC)c(CCNC(=O)Nc2cn(CC(C)C)c(=O)c3ccccc23)c1,1.12,2.5,
COc1ccc(OC)c(CNC(=O)Nc2cn(C)c(=O)c3ccccc23)c1,25,3.4,
CC(NC(=O)CN)(C(=O)Nc1cncc2ccccc12)c1ccc(Cl)c(Cl)c1 (configuration not stated),,,5.47
O=C1C(Nc2ncnc3[nH]cnc23)CCN1Cc1ccccc1 (configuration not stated),-6.26,-5.36,
Cn1ccc(CN(C(=O)Cc2cccnc2)c2ccc(-c3ccccn3)cc2)n1,6.62,16.1,
O=C(Nc1cncc2ccccc12)[C@H]1COc2ccc(Cl)cc21 (stereo in doubt),,,4.57
NC(=O)C[S@@+]([O-])C(c1ccccc1)c1ccccc1 (stereo in doubt),-1.76,-1.92,
CC(C)N(C(=O)Cc1c(O)c2ccccc2[nH]c1=O)C(C)C,-0.198,-0.251,
O=C(Cc1cc(Cl)cc(Nc2ccc(C(F)(F)F)cn2)c1)Nc1cncc2ccccc12,,,5.91
COc1cccc2[nH]c(=O)cc(C(=O)NCCOc3ccccc3OCC3CC3)c12,,,5.72
O=C(Cn1ccnc1[N+](=O)[O-])NCc1ccccc1,-7.12,4.09,
O=C(O)C12CC(CNCc3ccc4c(c3)OCC4)(C1)OC2c1ccccc1 (configuration not stated),-3.12,-4.27,
O=C(Nc1c[nH]nc1-c1ccccn1)c1cccc2nccn12,2.59,9.01,
O=C(Nc1cnn2ccc(N3CCC[C@@H]3c3cc(F)ccc3F)nc12)N1CC[C@H](O)C1 (stereo in doubt),-17.2,-4.24,
CCCc1c(C)[nH]c2[nH]n(-c3ccccc3)c(=O)c2c1=O,4.23,2.81,
CC(C)Cn1cc(NC(=O)NCC2CCCO2)c2ccccc2c1=O (configuration not stated),-0.42,6.75,
CC(NC(=O)c1cc2n(n1)CCO2)(C(=O)Nc1cncc2ccccc12)c1ccc(Cl)c(Cl)c1 (configuration not stated),,,5.07
COc1ccc(NC(=O)Nc2cn(C)c(=O)c3ccccc23)cc1OC,1.6,10.8,

Structure (SMILES),inhibition (20.0 µM) [%],inhibition (50.0 µM) [%],pIC50
CC(C)(C)c1ccc(N(C(=O)c2cccnc2)C(C(=O)NCCc2cccc(F)c2)c2cccnc2)cc1 (configuration not stated),-5.55,-6.34,
CC(CCc1ccco1)NC(=O)Nc1cn(C)c(=O)c2ccccc12 (configuration not stated),32.6,67.9,
O=C(OCC(O)CO)c1ccccc1Nc1ccnc2cc(Cl)ccc12 (configuration not stated),3.82,-5.01,
COc1ccc(NC(=O)Nc2cn(C)c(=O)c3ccccc23)c(OC)c1,7.06,17.9,
NCc1cn(CC(=O)N(Cc2ccsc2)c2ccc(N3CCOCC3)cc2)nn1,-4.16,-1.29,
O=C(Nc1cncc2ccccc12)[C@@H]1CCNc2cc(Cl)c(Cl)cc21 (stereo in doubt),,,7.30
CC(C)Cn1cc(NC(=O)NCCCN2CCCC2=O)c2ccccc2c1=O,-2.54,3.77,
CC(NC(=O)COc1ccc(C(N)=O)cc1)(C(=O)Nc1cncc2ccccc12)c1ccc(Cl)c(Cl)c1 (configuration not stated),,,4.91
COc1ncc(Br)cc1Nc1cc(Cl)cc(CC(=O)Nc2cncc3ccccc23)c1,,,6.17
Cn1nc(C(=O)NC(C)(C(=O)Nc2cncc3ccccc23)c2ccc(Cl)c(Cl)c2)cc1C#N (configuration not stated),,,4.99
CC(C)Cn1cc(NC(=O)NCCC2=CCCCC2)c2ccccc2c1=O,25.7,0.931,
Cn1cc(NC(=O)N2CCN(C(=O)c3ccco3)CC2)c2ccccc2c1=O,-4.83,-2.88,
COc1ccc(OC)c(CNC(=O)Nc2cn(CC(C)C)c(=O)c3ccccc23)c1,18.5,0.63,
CCc1ccccc1N(CC)C(=O)Nc1cn(C)c(=O)c2ccccc12,-3.06,22.3,
O=C(CC1(C(=O)Nc2cncc3ccccc23)CCOc2ccc(Cl)cc21)N1CCOCC1CC(F)F (configuration not stated),,,5.01
CC1(C)CN(C(=O)c2ccc(-c3cccc4nc(NC(=O)C5CC5)nn34)cc2)C1,-1.13,0.838,
CC(C)Cn1cc(NC(=O)NCCc2c[nH]c3ccccc23)c2ccccc2c1=O,1.66,6.69,
CN(C)C(=O)c1cc2cnc(Nc3ccc(N4CCNCC4)cn3)nc2n1C1CCCC1,-3.84,-4.06,
Cn1cc(NC(=O)NCCc2ccsc2)c2ccccc2c1=O,14.5,8.36,
CC(C)Cn1cc(NC(=O)N2CCCN(Cc3ccccc3F)C2)c2ccccc2c1=O,-1.37,-3.78,
COC(=O)c1sccc1NC(=O)Nc1cn(CC(C)C)c(=O)c2ccccc12,-3.98,-0.958,

Structure (SMILES),inhibition (20.0 µM) [%],inhibition (50.0 µM) [%],pIC50
O=C1CCCCC(C(=O)Nc2ccc(-c3nc[nH]n3)cc2F)N1 (configuration not stated),-4.07,-3.07,
COC[C@]1(C(=O)Nc2cncc3ccccc23)CCOc2cc(Cl)c(Cl)cc21 (stereo in doubt),,,5.49
COc1cc(Br)ccc1Nc1cc(Cl)cc(CC(=O)Nc2cncc3ccccc23)c1,,,5.86
O=C(O)CNC(=O)c1ncc(-c2cccc(Cl)c2)cc1O,1.43,-1.75,
Cn1cc(NC(=O)N(Cc2ccco2)CC2CCCO2)c2ccccc2c1=O (configuration not stated),2.81,0.168,
O=C(N[C@@H](Cc1cc(=O)[nH]c2ccccc12)C(=O)O)c1ccc(Cl)cc1 (stereo in doubt),1.24,-22.3,
COc1ccc(N2C(=O)CCS2(=O)=O)cc1S(=O)(=O)Nc1cccc2cccnc12,65.3,37.4,
Cn1cc(NC(=O)NCCCN2CCc3ccccc3C2)c2ccccc2c1=O,-2.25,1.39,
Cc1ccc2nc(Nc3cc(Cl)cc(CC(=O)Nc4cncc5ccccc45)c3)sc2c1,,,6.35
Cc1nc2n(n1)CC(C(=O)NC(C)(C(=O)Nc1cncc3ccccc13)c1ccc(Cl)c(Cl)c1)CC2 (configuration not stated),,,5.32
Cc1ccncc1NC(=O)N(C)c1cccc(Cl)c1,17.6,33.8,
Cn1cnc(CN(C(=O)c2cnnn2-c2ccccc2)c2ccc(OCc3ccccc3)cc2)c1,-1.63,1.89,
Cn1cc(NC(=O)Nc2cccc(C(F)(F)F)c2)c2ccccc2c1=O,-2.91,0.168,
O=C(Cc1cc(Cl)cc(NCc2ccc(Br)cc2)c1)Nc1cncc2ccccc12,,,5.85
Cc1[nH]c2ncnc(NC(=O)C3CCN(c4ccc(Cl)cn4)CC3)c2c1C,-8.15,-5.21,
Nc1cc(C(F)(F)F)c(-c2nc(N3CCOCC3)nc(N3CCOCC3)n2)cn1,5.19,5.97,
Cc1cc(Cn2nnc3c(-c4ccco4)nc(N)nc32)ccc1N,1.89,-1.33,
COc1cc(Cl)c(C)cc1NC(=O)Nc1cn(C)c(=O)c2ccccc12,23.7,5.81,
Cc1noc(C)c1CCNC(=O)Nc1cn(CC(C)C)c(=O)c2ccccc12,39,94.5,
CC(C)Cn1cc(NC(=O)Nc2nc3ccccc3s2)c2ccccc2c1=O,3.79,12.2,
CCN(CC)S(=O)(=O)c1ccc(NC(=O)Nc2cn(C)c(=O)c3ccccc23)cc1,0.771,-1.21,
